US20240158446A1, “CYCLIC COMPOUND HAVING SELECTIVE INHIBITORY ACTION ON KRAS OVER HRAS AND NRAS” (CHUGAI SEIYAKU KABUSHIKI KAISHA, priority 2021, published 2024)

Columns and labels:
[1] = target: GDP-bound NRAS wild-type protein (Homo sapiens, UniProt P01111); assay: Binding to NRAS by surface plasmon resonance (SPR), Single Cycle Kinetics; conditions: for NRAS/KRAS (ratio of KD value for NRAS to KD value for KRAS) / NRAS/KRAS (ratio of KD value with respect to NRAS to KD value with respect to KRAS): SPR, GDP-bound NRAS wild-type protein vs GDP-bound KRAS wild-type protein
[2] = target: GDP-bound HRAS wild-type protein (Homo sapiens, UniProt P01112); assay: Binding to HRAS by surface plasmon resonance (SPR), Single Cycle Kinetics; conditions: for HRAS/KRAS (ratio of KD value for HRAS to KD value for KRAS) / HRAS/KRAS (ratio of KD value with respect to HRAS to KD value with respect to KRAS): SPR, GDP-bound HRAS wild-type protein vs GDP-bound KRAS wild-type protein
Sequence of GDP-bound HRAS wild-type protein (P01112 whole entry): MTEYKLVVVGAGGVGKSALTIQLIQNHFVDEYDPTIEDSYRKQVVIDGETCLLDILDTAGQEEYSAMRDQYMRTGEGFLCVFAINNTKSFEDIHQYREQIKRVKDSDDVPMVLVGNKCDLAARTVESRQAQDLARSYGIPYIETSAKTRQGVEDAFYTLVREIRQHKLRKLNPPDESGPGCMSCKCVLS

Sequence of GDP-bound NRAS wild-type protein (P01111 whole entry): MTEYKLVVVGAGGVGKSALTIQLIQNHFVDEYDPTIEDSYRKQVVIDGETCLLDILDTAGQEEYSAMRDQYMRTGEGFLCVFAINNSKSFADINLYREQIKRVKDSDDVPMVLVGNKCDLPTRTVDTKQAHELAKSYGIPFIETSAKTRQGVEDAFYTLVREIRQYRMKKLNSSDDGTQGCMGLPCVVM

| Compound | NRAS/KRAS (ratio of KD value for NRAS to KD value for KRAS) [1] | HRAS/KRAS (ratio of KD value for HRAS to KD value for KRAS) [2] | also measured |
| --- | --- | --- | --- |
| CCOC[C@H]1C(=O)N[C@@H]([C@@H](C)CC)C(=O)N(C2CC2)CC(=O)N(C)[C@H]2C/C=C\CCN(C2=O)[C@@H](CC2CCC(F)(F)CC2)C(=O)N(C)CC(=O)N[C@@H](CCc2ccc(C(F)(F)F)c(OC)c2)C(=O)N2C[C@H](OCC)C[C@H]2C(=O)N(C)C2(CCC2)C(=O)N(C)[C@@H](C(CC)CC)C(=O)N(C)[C@H](C(=O)N(C)C)CC(=O)N1C [PP2351] | A (a compound having 10 or more and less than 20 is denoted as A) | A (a compound having 10 or more and less than 20 is denoted as A) | – |
| CCC[C@H]1C(=O)N[C@@H](C(CC)CC)C(=O)N(C)CC(=O)N(C)[C@H]2C/C=C\CCN(C2=O)[C@@H](Cc2ccc(C)cc2)C(=O)N(C)CC(=O)N[C@@H](CCc2ccc(C(F)(F)F)c(Cl)c2)C(=O)N2C[C@H](OCC)C[C@H]2C(=O)NC2(CC(C)(C)C2)C(=O)N(C)[C@@H](CC(C)C)C(=O)N(C)[C@H](C(=O)N(C)C)CC(=O)N1C [PP2202] | A (a compound having 10 or more and less than 20 is denoted as A) | A (a compound having 10 or more and less than 20 is denoted as A) | – |
| CC[C@H](C)[C@@H]1NC(=O)[C@H](CC(C)C)N(C)C(=O)C[C@@H](C(=O)N2CCOCC2)N(C)C(=O)[C@H](C2CCCC2)N(C)C(=O)C2(CCC2)NC(=O)[C@@H]2[C@@H](OCCC(F)(F)F)CCN2C(=O)[C@H](CCc2cc(F)c(C(F)(F)F)c(F)c2)NC(=O)CN(C)C(=O)[C@H](Cc2ccc(C(F)(F)F)cc2)N2CCCCC[C@@H](C2=O)N(C)C(=O)CN(C)C1=O [PP1008] | A (a compound having 10 or more and less than 20 is denoted as A) | B (a compound having 3 or more and less than 10 is denoted as B) | – |
| CC[C@H](C)[C@@H]1NC(=O)[C@H](CC(C)C)N(C)C(=O)C[C@@H](C(=O)N2CCOCC2)N(C)C(=O)[C@H](C2CCCC2)N(C)C(=O)C2(CCCC2)NC(=O)[C@@H]2CCCN2C(=O)[C@H](CCc2cc(F)c(C(F)(F)F)c(F)c2)NC(=O)CN(C)C(=O)[C@H](Cc2ccc(F)cc2)N2CCCCC[C@@H](C2=O)N(C)C(=O)CN(C)C1=O [PP0964] | B (a compound having 3 or more and less than 10 is denoted as B) | B (a compound having 3 or more and less than 10 is denoted as B) | – |
| CCO[C@@H]1C[C@H]2C(=O)NC3(CCC3)C(=O)N(C)[C@@H](C3CCCC3)C(=O)N(C)[C@H](C(=O)N3CCOCC3)CC(=O)N(C)[C@@H](CC3CCCC3)C(=O)N[C@@H]([C@@H](C)CC)C(=O)N(C)CC(=O)N(C)[C@H]3CCCCCN(C3=O)[C@@H](Cc3ccc(C(F)(F)F)cc3)C(=O)N(C)CC(=O)N[C@@H](CCc3cc(F)c(C(F)(F)F)c(F)c3)C(=O)N2C1 [PP0685] | – | – | NRAS/KRAS (ratio of KD value with respect to NRAS to KD value with respect to KRAS) [1]: B (a compound having 3 or more and less than 10 is denoted as B); HRAS/KRAS (ratio of KD value with respect to HRAS to KD value with respect to KRAS) [2]: B (a compound having 3 or more and less than 10 is denoted as B) |
| CCO[C@@H]1C[C@H]2C(=O)NC3(CC(C)(C)C3)C(=O)N(C)[C@@H](C(CC)CC)C(=O)N(C)[C@H](C(=O)N(C)C)CC(=O)N(C)[C@@H](C(C)C)C(=O)N[C@@H]([C@@H](C)CC)C(=O)N(C)CC(=O)N(C)[C@H]3C/C=C\CCN(C3=O)[C@@H](Cc3ccc(C)cc3)C(=O)N(C)CC(=O)N[C@@H](CCc3ccc(C(F)(F)F)c(Cl)c3)C(=O)N2C1 [PP2158] | AA (a compound having 20 or more is denoted as AA) | A (a compound having 10 or more and less than 20 is denoted as A) | – |
| CCO[C@@H]1C[C@H]2C(=O)NC3(CCC3)C(=O)N(C)[C@@H](C3CCCC3)C(=O)N(C)[C@H](C(=O)N3CCOCC3)CC(=O)N(C)[C@@H](CC(C)C)C(=O)N[C@@H]([C@@H](C)CC)C(=O)N(C)CC(=O)N(C)[C@H]3CCCCCN(C3=O)[C@@H](Cc3ccc(F)cc3)C(=O)N(C)CC(=O)N[C@@H](CCc3ccc(C(F)(F)F)c(Cl)c3)C(=O)N2C1 [PP0968] | B (a compound having 3 or more and less than 10 is denoted as B) | B (a compound having 3 or more and less than 10 is denoted as B) | – |
| CCO[C@@H]1C[C@H]2C(=O)NC3(CCCC3)C(=O)N(C)[C@@H](C3CCCC3)C(=O)N(C)[C@H](C(=O)N3CCOCC3)CC(=O)N(C)[C@@H](CC(C)C)C(=O)N[C@@H]([C@@H](C)CC)C(=O)N(C)CC(=O)N(C)[C@H]3CCCCCN(C3=O)[C@@H](Cc3ccc(F)cc3)C(=O)N(C)CC(=O)N[C@@H](CCc3ccc(C(F)(F)F)c(Cl)c3)C(=O)N2C1 [PP0965] | B (a compound having 3 or more and less than 10 is denoted as B) | B (a compound having 3 or more and less than 10 is denoted as B) | – |
| CCOC[C@H]1C(=O)N[C@@H]([C@@H](C)CC)C(=O)N(C)CC(=O)N(C)[C@H]2CCCCCN(C2=O)[C@@H](Cc2ccc(C(F)(F)F)cc2)C(=O)N(C)CC(=O)N[C@@H](CCc2cc(F)c(C(F)(F)F)c(F)c2)C(=O)N2C[C@H](OCC)C[C@H]2C(=O)NC2(CCC2)C(=O)N(C)[C@@H](C2CCCC2)C(=O)N(C)[C@H](C(=O)N2CCOCC2)CC(=O)N1C [PP0851] | B (a compound having 3 or more and less than 10 is denoted as B) | B (a compound having 3 or more and less than 10 is denoted as B) | – |
| CCO[C@@H]1C[C@H]2C(=O)NC3(CCC3)C(=O)N(C)[C@@H](C3CCCC3)C(=O)N(C)[C@H](C(=O)N3CCOCC3)CC(=O)N(C)[C@@H](CC(C)C)C(=O)N[C@@H](C3CC(F)(F)C3)C(=O)N(C)CC(=O)N(C)[C@H]3CCCCCN(C3=O)[C@@H](Cc3ccc(C(F)(F)F)cc3)C(=O)N(C)CC(=O)N[C@@H](CCc3cc(F)c(C(F)(F)F)c(F)c3)C(=O)N2C1 [PP0816] | A (a compound having 10 or more and less than 20 is denoted as A) | B (a compound having 3 or more and less than 10 is denoted as B) | – |
| C#CC[C@H]1C(=O)N[C@@H]([C@@H](C)CC)C(=O)N(C)CC(=O)N(C)[C@H]2C/C=C\CCN(C2=O)[C@@H](Cc2ccc(C(F)(F)F)cc2)C(=O)N(C)CC(=O)N[C@@H](CCc2ccc(C(F)(F)F)c(OC)c2)C(=O)N2C[C@@H](C)C[C@H]2C(=O)NC2(CCC2)C(=O)N(C)[C@@H](C2CCCC2)C(=O)N(C)[C@H](C(=O)N(C)CCC)CC(=O)N1C [PP2063] | AA (a compound having 20 or more is denoted as AA) | A (a compound having 10 or more and less than 20 is denoted as A) | – |
| CCO[C@@H]1C[C@H]2C(=O)NC3(CCC3)C(=O)N(C)[C@@H](C3CCCC3)C(=O)N(C)[C@H](C(=O)N3CCOCC3)CC(=O)N(C)[C@@H](CC(C)C)C(=O)N[C@@H]([C@@H](C)CC)C(=O)N3CC[C@H]3C(=O)N(C)[C@H]3C[C@@H](C)CCN(C3=O)[C@@H](Cc3ccc(C(F)(F)F)cc3)C(=O)N(C)CC(=O)N[C@@H](CCc3cc(F)c(C(F)(F)F)c(F)c3)C(=O)N2C1 [PP1026] | B (a compound having 3 or more and less than 10 is denoted as B) | B (a compound having 3 or more and less than 10 is denoted as B) | – |
| CCO[C@@H]1C[C@H]2C(=O)NC3(CCC3)C(=O)N(C)[C@@H](C3CCCC3)C(=O)N(C)[C@H](C(=O)N(C)C)CC(=O)N(C)[C@@H](CC3CCCC3)C(=O)N[C@@H]([C@@H](C)CC)C(=O)N(C)CC(=O)N(C)[C@H]3C/C=C\CCN(C3=O)[C@@H](Cc3ccc(C)cc3)C(=O)N(C)CC(=O)N[C@@H](CCc3ccc(CC)c(F)c3)C(=O)N2C1 [PP2686] | – | – | NRAS/KRAS (ratio of KD value with respect to GDP-bound NRAS wild-type protein to KD value with respect to KRAS) ([1]; SPR KD ratio NRAS/KRAS, class symbols): A (a compound having 10 or more and less than 20 is denoted as A); HRAS/KRAS (ratio of KD value with respect to GDP-bound HRAS wild-type protein to KD value with respect to KRAS) ([2]; SPR KD ratio HRAS/KRAS, class symbols): A (a compound having 10 or more and less than 20 is denoted as A) |
| CCCN1C(=O)CN(C)C(=O)CN(C)C(=O)[C@H]([C@@H](C)CC)NC(=O)[C@@H]2CCCCOc3ccc(cc3)C[C@H]1C(=O)N(C)CC(=O)N[C@@H](CCc1cc(F)c(C(F)(F)F)c(F)c1)C(=O)N1C[C@H](OCC)C[C@H]1C(=O)NC1(CCCC1)C(=O)N(C)[C@@H](C1CCCC1)C(=O)N(C)[C@H](C(=O)N(C)C)CC(=O)N2C [PP0894] | C (A compound having a KD ratio of 0.1 or more and less than 3 is denoted as C) | C (A compound having a KD ratio of 0.1 or more and less than 3 is denoted as C) | – |
| CCO[C@@H]1C[C@H]2C(=O)NC3(CCC3)C(=O)N(C)[C@@H](C3CCCC3)C(=O)N(C)[C@H](C(=O)N3CCOCC3)CC(=O)N(C)[C@@H](CC3CCC3)C(=O)N[C@@H]([C@@H](C)CC)C(=O)N(C)CC(=O)N(C)[C@H]3CCCCCN(C3=O)[C@@H](Cc3ccc(C(F)(F)F)cc3)C(=O)N(C)CC(=O)N[C@@H](CCc3cc(F)c(C(F)(F)F)c(F)c3)C(=O)N2C1 [PP0683] | – | – | NRAS/KRAS (ratio of KD value with respect to NRAS to KD value with respect to KRAS) [1]: B (a compound having 3 or more and less than 10 is denoted as B); HRAS/KRAS (ratio of KD value with respect to HRAS to KD value with respect to KRAS) [2]: B (a compound having 3 or more and less than 10 is denoted as B) |
| CCO[C@@H]1C[C@H]2C(=O)NC3(CCC3)C(=O)N(C)[C@@H](C3CCCC3)C(=O)N(C)[C@H](C(=O)N3CCOCC3)CC(=O)N(C)[C@@H](CC(C)C)C(=O)N[C@@H]([C@H](C)CC)C(=O)N(C)CC(=O)N(C)[C@H]3CCCCCN(C3=O)[C@@H](Cc3ccc(C(F)(F)F)cc3)C(=O)N(C)CC(=O)N[C@@H](CCc3cc(F)c(C(F)(F)F)c(F)c3)C(=O)N2C1 [PP0815] | B (a compound having 3 or more and less than 10 is denoted as B) | B (a compound having 3 or more and less than 10 is denoted as B) | – |
